Drawing on PubChem BioAssay AID330 (DTP/NCI, 2004), this text covers T/C for 21 compounds.

Values joined by “and” are separate entries in the source; they are usually repeats but may differ in a detail not shown here. Identical values can stand only once. Inconclusive results and toxic doses are left out. Peptide text beside a SMILES is read from it. * marks the point of attachment. Cbz = O=C(OCc1ccccc1)*

The subject of the assay is P388 leukemia ip, CD2F1 mice, survival T/C. The assay can be described thus: NCI In Vivo Anticancer Drug Screen. Data for tumor model P388 Leukemia (intraperitoneal) in CD2F1 (CDF1) mice. Conditions: endpoint: median survival time, higher = longer survival. Put shortly:
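Mice carrying the transplanted tumor received test compound or vehicle. Survival was recorded in each group, and the value is the treated-group measurement divided by that of the vehicle-treated control group.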

Where [1] appears, read: dose: 50.0 mg/kg/injection, schedule: Q01DX009 (ip), vehicle: saline.
Where [2] appears, read: dose: 100.0 mg/kg/injection, schedule: Q01DX009 (ip), vehicle: saline.
Setting [3] is: dose: 200.0 mg/kg/injection, schedule: Q01DX009 (ip), vehicle: saline.
Where [4] appears, read: dose: 400.0 mg/kg/injection, schedule: Q01DX009 (ip), vehicle: saline.
[5] abbreviates: dose: 50.0 mg/kg/injection, schedule: Q01DX005 (ip), vehicle: saline with Tween-80.
The mark [6] stands for this setting: dose: 100.0 mg/kg/injection, schedule: Q01DX005 (ip), vehicle: saline with Tween-80.
Where [7] appears, read: dose: 200.0 mg/kg/injection, schedule: Q01DX005 (ip), vehicle: saline with Tween-80.
The mark [8] stands for this setting: dose: 50.0 mg/kg/injection, schedule: Q01DX009 (ip), vehicle: saline with Tween-80.
Setting [9] is: dose: 100.0 mg/kg/injection, schedule: Q01DX009 (ip), vehicle: saline with Tween-80.
[10] abbreviates: dose: 200.0 mg/kg/injection, schedule: Q01DX009 (ip), vehicle: saline with Tween-80.
Where [11] appears, read: dose: 12.5 mg/kg/injection, schedule: Q01DX009 (ip), vehicle: water.
Where [12] appears, read: dose: 25.0 mg/kg/injection, schedule: Q01DX009 (ip), vehicle: water.
Setting [13] is: dose: 50.0 mg/kg/injection, schedule: Q01DX009 (ip), vehicle: water.
Setting [14] is: dose: 100.0 mg/kg/injection, schedule: Q01DX009 (ip), vehicle: water.
[15] abbreviates: dose: 12.5 mg/kg/injection, schedule: Q01DX009 (ip), vehicle: saline with Tween-80.
The mark [16] stands for this setting: dose: 25.0 mg/kg/injection, schedule: Q01DX009 (ip), vehicle: saline with Tween-80.
Setting [17] is: dose: 100.0 mg/kg/injection, schedule: Q04DX003 (ip), vehicle: saline with Tween-80.
Where [18] appears, read: dose: 200.0 mg/kg/injection, schedule: Q04DX003 (ip), vehicle: saline with Tween-80.
The mark [19] stands for this setting: dose: 400.0 mg/kg/injection, schedule: Q04DX003 (ip), vehicle: saline with Tween-80.
Setting [20] is: dose: 50.0 mg/kg/injection, schedule: Q01DX005 (ip), vehicle: Klucel (hydroxypropylcellulose) (HPC).
Where [21] appears, read: dose: 100.0 mg/kg/injection, schedule: Q01DX005 (ip), vehicle: Klucel (hydroxypropylcellulose) (HPC).

As to `O=c1cc[nH]cc1`, the T/C under setting [1] was 100 % of control and 103 % of control; the T/C under setting [2] is 103 % of control and 109 % of control; the T/C under setting [3] was 101 % of control and 113 % of control; the T/C under setting [4] is 111 % of control and 116 % of control; the T/C (dose: 600.0 mg/kg/injection, schedule: Q01DX009 (ip), vehicle: saline) is 112 % of control and 113 % of control.

With `Cc1cc(=O)c2c(ccc3c(=O)cc(C)[nH]c32)[nH]1`, the T/C (dose: 30.0 mg/kg/injection, schedule: Q01DX005 (ip), vehicle: saline with Tween-80) was 93 % of control; the T/C (dose: 60.0 mg/kg/injection, schedule: Q01DX005 (ip), vehicle: saline with Tween-80) was 91 % of control; the T/C (dose: 120.0 mg/kg/injection, schedule: Q01DX005 (ip), vehicle: saline with Tween-80) was 100 % of control and 91 % of control.

In the case of `COC(=O)C1C(=O)OC(C(C)(C)Cl)C1C(=O)OC` (stereo not drawn), the T/C reads like this: (dose: 100.0 mg/kg/injection, schedule: Q04DX002 (ip), vehicle: saline with Tween-80) 99 % of control; (dose: 200.0 mg/kg/injection, schedule: Q04DX002 (ip), vehicle: saline with Tween-80) 98 % of control; (dose: 400.0 mg/kg/injection, schedule: Q04DX002 (ip), vehicle: saline with Tween-80) 101 % of control.

Take `CCOC(OCC)C(N)=O`: the T/C by setting is: under setting [5], 105 % of control; under setting [6], 109 % of control; under setting [7], 100 % of control.

Turning to `COC(=O)C(NC(=O)C1CCCN1C(=O)OCc1ccccc1)C(C)C` (stereo not drawn) (Cbz-Pro-Val-OMe; configuration not given here), the T/C under setting [8] is 98 % of control, the T/C under setting [9] is 104 % of control and the T/C under setting [10] is 107 % of control.

In the case of `Cc1cc(Br)c2nsnc2c1[N+](=O)[O-]`, the T/C under setting [5] is 122 % of control.

With `CCOC(=O)CC1(O)CS/C(=C(\C#N)C(=O)OCC)S1` (stereo not drawn), the T/C under setting [5] was 102 % of control, the T/C under setting [6] is 102 % of control and the T/C under setting [7] is 98 % of control.

Take `CSc1n[nH]c(-c2cccs2)n1`: the T/C runs as follows: (dose: 60.0 mg/kg/injection, schedule: Q01DX005 (ip), vehicle: Klucel (hydroxypropylcellulose) (HPC)) 104 % of control; (dose: 120.0 mg/kg/injection, schedule: Q01DX005 (ip), vehicle: Klucel (hydroxypropylcellulose) (HPC)) 105 % of control.

Turning to `Cn1c(Cl)c(/C=C(/NC(=O)c2ccccc2)C(=O)O)c2ccccc21`, the T/C by setting is: (dose: 100.0 mg/kg/injection, schedule: Q01DX001 (ip), vehicle: Klucel (hydroxypropylcellulose) (HPC)) 102 % of control; (dose: 200.0 mg/kg/injection, schedule: Q01DX001 (ip), vehicle: Klucel (hydroxypropylcellulose) (HPC)) 93 % of control; (dose: 400.0 mg/kg/injection, schedule: Q01DX001 (ip), vehicle: Klucel (hydroxypropylcellulose) (HPC)) 93 % of control.

As to `O=c1ncccn1[C@@H]1O[C@H](CO)[C@H](O)C1O` (stereo partly drawn), the T/C is, setting by setting: (dose: 6.25 mg/kg/injection, schedule: Q01DX009 (ip), vehicle: water) 103 % of control; under setting [11], 104 % of control; under setting [12], 101 % of control; under setting [13], 102 % of control; under setting [14], 108 % of control; under setting [4], 152 % of control.

As for `O=C(CC(=O)c1ccccc1F)Nc1ccc([N+](=O)[O-])cc1`, the T/C runs as follows: under setting [15], 100 % of control; under setting [16], 100 % of control; under setting [8], 95 % of control; under setting [17], 90 % of control; under setting [18], 95 % of control; under setting [19], 100 % of control.

Turning to `COc1ccc(C(Cc2ccccc2)NCCNCCO)cc1` (stereo not drawn), the T/C is 101 % of control under setting [20] and 101 % of control under setting [21].

For the compound `CCC1=Cc2cc([N+](=O)[O-])cc(OC)c2OC12SCCN2C` (stereo not drawn), the T/C was 100 % of control under setting [17], 103 % of control under setting [18] and 103 % of control under setting [19].

For `O=C1NC(=O)C2(CCCc3c([N+](=O)[O-])cccc32)N1` (stereo not drawn), the T/C is 97 % of control under setting [8], 93 % of control under setting [9] and 90 % of control under setting [10].

Consider `OCCc1ccccn1`, for which the T/C under setting [1] was 102 % of control, the T/C under setting [2] was 111 % of control, the T/C under setting [3] was 102 % of control and the T/C under setting [4] is 102 % of control.

In the case of `O=C(NC(Cc1ccccc1)C(=O)O)C(Cl)Cl` (stereo not drawn), the T/C reads like this: under setting [20], 91 % of control; under setting [21], 100 % of control; (dose: 200.0 mg/kg/injection, schedule: Q01DX005 (ip), vehicle: Klucel (hydroxypropylcellulose) (HPC)) 100 % of control.

On to `Cc1c2ccncc2c(C)c2c1[nH]c1ccc(O)cc12`, for which the T/C is 111 % of control (dose: 6.25 mg/kg/injection, schedule: Q01DX009 (ip), vehicle: saline); 150 % of control (dose: 6.25 mg/kg/injection, schedule: Q01DX009 (ip), vehicle: suspension in saline); 169 % of control (dose: 12.5 mg/kg/injection, schedule: Q01DX009 (ip), vehicle: saline); 167 % of control (dose: 12.5 mg/kg/injection, schedule: Q01DX009 (ip), vehicle: suspension in saline).

Take `CCN(CC)C1CS(=O)(=O)OC2=C1Cc1ccccc1CC2` (stereo not drawn): the T/C is, setting by setting: (dose: 50.0 mg/kg/injection, schedule: Q04DX003 (ip), vehicle: Klucel (hydroxypropylcellulose) (HPC)) 100 % of control; (dose: 100.0 mg/kg/injection, schedule: Q04DX003 (ip), vehicle: Klucel (hydroxypropylcellulose) (HPC)) 99 % of control; (dose: 200.0 mg/kg/injection, schedule: Q04DX003 (ip), vehicle: Klucel (hydroxypropylcellulose) (HPC)) 105 % of control.

Regarding `O=C(CCCN1CCC(C(O)c2ccc(F)cc2)CC1)c1ccc(F)cc1` (stereo not drawn), the T/C is 101 % of control (dose: 3.0 mg/kg/injection, schedule: Q01DX005 (ip), vehicle: saline with Tween-80); 98 % of control (dose: 3.13 mg/kg/injection, schedule: Q01DX009 (ip), vehicle: saline with Tween-80); 104 % of control (dose: 6.0 mg/kg/injection, schedule: Q01DX005 (ip), vehicle: saline with Tween-80); 92 % of control (dose: 6.25 mg/kg/injection, schedule: Q01DX009 (ip), vehicle: saline with Tween-80); 98 % of control (dose: 12.0 mg/kg/injection, schedule: Q01DX005 (ip), vehicle: saline with Tween-80); 103 % of control under setting [15]. In addition, the T/C is 107 % of control under setting [16], 114 % of control under setting [5], 100 % of control under setting [8] and 95 % of control under setting [9].

For `COc1cc(C2c3cc4c(cc3OC(C)(OC)C2C)OCO4)cc(OC)c1OC` (stereo not drawn), the T/C is 103 % of control (dose: 1.8 mg/kg/injection, schedule: Q01DX005 (ip), vehicle: saline); 98 % of control (dose: 3.75 mg/kg/injection, schedule: Q01DX005 (ip), vehicle: saline); 93 % of control (dose: 7.5 mg/kg/injection, schedule: Q01DX005 (ip), vehicle: saline); 91 % of control (dose: 15.0 mg/kg/injection, schedule: Q01DX005 (ip), vehicle: saline); 89 % of control (dose: 30.0 mg/kg/injection, schedule: Q01DX005 (ip), vehicle: saline); 102 % of control and 86 % of control (dose: 60.0 mg/kg/injection, schedule: Q01DX005 (ip), vehicle: saline). Moreover, the T/C (dose: 120.0 mg/kg/injection, schedule: Q01DX005 (ip), vehicle: saline) was 86 % of control and the T/C (dose: 240.0 mg/kg/injection, schedule: Q01DX005 (ip), vehicle: saline) was 92 % of control.

Take `COC(=O)C(N)C(C)O` (stereo not drawn): the T/C reads like this: under setting [11], 97 % of control; under setting [12], 101 % of control; under setting [13], 89 % of control; under setting [14], 102 % of control; (dose: 200.0 mg/kg/injection, schedule: Q01DX009 (ip), vehicle: water) 102 % of control.
